Data taken from patent US5980913A, “Peptides having immunomodulatory activity” (Biochem Pharma, Inc., priority 1994, dated 1999).
Where a SMILES comes first, the peptide text is derived from it. [ ]: non-standard residue; d: D form.

Test system: blood cell subsets (cell surface antigens)
Test: In vivo/ex vivo immunophenotyping in the blood, mice treated 4 consecutive days, blood taken on day 5
Design: species or system C57BL/6 mice
Description: C57BL.backslash.6 mice are treated with 0, 50, 100, 200, and 300 mg/kg of drug (in saline) for 4 consecutive days. Blood is taken by cardiac puncture on day 5, and the lymphocytes are isolated from spleen in the following manner:
1. Immunophenotyping (blood and spleen)
Cell immunophenotyping is performed on blood and spleen. The following cell surface antigens are analyzed:
CD4 (T helper/inducer, binds class II-restricted T cells);
CD8 (cytotoxic T cells, CTL adhesion);
MAC-1 (monocyte/macrophage);
NK (natural killer cells);
CD45 (all leukocytes, protein tyrosine phosphatase).

## NCCCC[C@@H](N)C(=O)N[C@@H](CC(N)=O)C(=O)N1CCC[C@H]1C(=O)N[C@@H](Cc1ccc(O)cc1)C(=O)O [PEPTIDE #5, H-(D-Lys)-Asn-Pro-Tyr-OH] (H-[dK]NPY-OH)
  change of relative percentage of T cells (TCR, CD4+ and CD8+ cell surface antigen) (in words): reduced in a significant manner
50 mg/kg, first assay
  CD4+ CD8+ cell subset, relative percentage, MEAN: 2.03
  CD4+ CD8- cell subset, relative percentage, MEAN: 18.15
  CD4+ CD11b+ cell subset, relative percentage, MEAN: 1.18
  CD4+ CD11b- cell subset, relative percentage, MEAN: 22.55
  CD4- CD8+ cell subset, relative percentage, MEAN: 5.15
  CD4- CD8- cell subset, relative percentage, MEAN: 74.68
  CD4- CD11b+ cell subset, relative percentage, MEAN: 12.08
  CD4- CD11b- cell subset, relative percentage, MEAN: 64.15
  CD45+ CD4+ cell subset, relative percentage, MEAN: 17.00
  CD45+ CD4- cell subset, relative percentage, MEAN: 57.68
  CD45+ CD8+ cell subset, relative percentage, MEAN: 6.53
  CD45+ CD8- cell subset, relative percentage, MEAN: 62.48
  CD45- CD4+ cell subset, relative percentage, MEAN: 3.15
  CD45- CD4- cell subset, relative percentage, MEAN: 22.15
  CD45- CD8- cell subset, relative percentage, MEAN: 30.35
  CD45- CDE8+ cell subset, relative percentage, MEAN: 0.68
  Ly5(B) cell subset, relative percentage, MEAN: 57.88
  NK+ CD3+ cell subset, relative percentage, MEAN: 2.13
  NK+ CD3- cell subset, relative percentage, MEAN: 5.70
  NK- CD3+ cell subset, relative percentage, MEAN: 33.30
  NK- CD3- cell subset, relative percentage, MEAN: 58.93
  TCR(T) cell subset, relative percentage, MEAN: 31.53
50 mg/kg, second assay
  CD4+ CD8+ cell subset, relative percentage, MEAN: 0.43
  CD4+ CD8- cell subset, relative percentage, MEAN: 20.65
  CD4+ CD11b+ cell subset, relative percentage, MEAN: 0.13
  CD4+ CD11b- cell subset, relative percentage, MEAN: 15.38
  CD4- CD8+ cell subset, relative percentage, MEAN: 7.70
  CD4- CD8- cell subset, relative percentage, MEAN: 71.20
  CD4- CD11b+ cell subset, relative percentage, MEAN: 6.73
  CD4- CD11b- cell subset, relative percentage, MEAN: 77.78
  CD45+ CD4+ cell subset, relative percentage, MEAN: 18.48
  CD45+ CD4- cell subset, relative percentage, MEAN: 68.23
  CD45+ CD8+ cell subset, relative percentage, MEAN: 8.10
  CD45+ CD8- cell subset, relative percentage, MEAN: 79.70
  CD45- CD4+ cell subset, relative percentage, MEAN: 2.25
  CD45- CD4- cell subset, relative percentage, MEAN: 11.05
  CD45- CD8+ cell subset, relative percentage, MEAN: 0.03
  CD45- CD8- cell subset, relative percentage, MEAN: 12.15
  Ly5(B) cell subset, relative percentage, MEAN: 58.6
  NK+ CD3+ cell subset, relative percentage, MEAN: 3.00
  NK+ CD3- cell subset, relative percentage, MEAN: 7.88
  NK- CD3+ cell subset, relative percentage, MEAN: 31.05
  NK- CD3- cell subset, relative percentage, MEAN: 58.10
  TCR(T) cell subset, relative percentage, MEAN: 35.73
100 mg/kg, first assay
  CD4+ CD8+ cell subset, relative percentage, MEAN: 2.10
  CD4+ CD8- cell subset, relative percentage, MEAN: 17.90
  CD4+ CD11b+ cell subset, relative percentage, MEAN: 1.10
  CD4+ CD11b- cell subset, relative percentage, MEAN: 20.30
  CD4- CD8+ cell subset, relative percentage, MEAN: 6.03
  CD4- CD8- cell subset, relative percentage, MEAN: 73.95
  CD4- CD11b+ cell subset, relative percentage, MEAN: 11.03
  CD4- CD11b- cell subset, relative percentage, MEAN: 67.65
  CD45+ CD4+ cell subset, relative percentage, MEAN: 16.78
  CD45+ CD4- cell subset, relative percentage, MEAN: 58.75
  CD45+ CD8+ cell subset, relative percentage, MEAN: 7.10
  CD45+ CD8- cell subset, relative percentage, MEAN: 63.45
  CD45- CD4+ cell subset, relative percentage, MEAN: 3.25
  CD45- CD4- cell subset, relative percentage, MEAN: 21.23
  CD45- CD8- cell subset, relative percentage, MEAN: 28.38
  CD45- CDE8+ cell subset, relative percentage, MEAN: 1.03
  Ly5(B) cell subset, relative percentage, MEAN: 58.73
  NK+ CD3+ cell subset, relative percentage, MEAN: 2.43
  NK+ CD3- cell subset, relative percentage, MEAN: 6.00
  NK- CD3+ cell subset, relative percentage, MEAN: 33.58
  NK- CD3- cell subset, relative percentage, MEAN: 57.95
  TCR(T) cell subset, relative percentage, MEAN: 32.23
100 mg/kg, second assay
  CD4+ CD8+ cell subset, relative percentage, MEAN: 0.33
